Data taken from patent US11384115B2, “Nuclear sulfated oxysterol, potent regulator of lipid homeostasis, for therapy of hypercholesterolemia, hypertriglycerides, fatty liver diseases, and atherosclerosis” (Virginia Commonwealth University, priority 2004, dated 2022).

Assays:
primary rat hepatocytes = assay: Bile acid synthesis rate, conversion of [14C]cholesterol into methanol/water-soluble products; assay type: cell-based; conditions: addition to primary rat hepatocytes
Description: FIGS. 9A-9B. Effect of the nuclear oxysterol on cholesterol uptake and bile acid biosynthesis. Rat primary hepatocyes were treated with nuclear extracts (methanol/water phase) (A and B) or purified nuclear oxysterol dissolved in control nuclear extract (C) 24 hrs after plating them. Then [^14C]cholesterol was added as described in FIG. 1. Culture media were then harvested at 0, 6, 12, and 24 hrs and radioactivity quantified (A). Bile acid synthesis rates (B and C) were measured as the conversion of [^14C]cholesterol into methanol/water extractable counts as described in (9). Bile acid synthetic rates were determined by the addition of 2.5 μCi of [^14C]cholesterol to each […] mm plate of confluent primary rat hepatocyte cultures ( 2.5×10^7 cells) 24 hrs after plating. Media and cells were harvested […]. Conversion of [^14C]cholesterol into [^14C]-methanol-water soluble products was determined by scintillation counting after extraction with chloroform-methanol (2:1, vol/vol) of cells and of culture media. Rates of bile acid biosynthesis following recombinant adenovirus infection were calculated as the ratio of [^14C]-methanol-water soluble counts to the sum of chloroform plus methanol-water counts. Individual bile acids were identified by HPLC analysis as described above. […] The phases were collected separately and counted.

HMG CoA reductase = assay: Western blot of HMG CoA reductase protein in HepG2 cells; assay type: cell-based, human
Description: FIGS. 15A-15D. 25HC3S regulates HMGR mRNA Expression. Real time RT-PCR analysis of HMG CoA R reductase expression in HepG2 cells (FIGS. 15A and 15B). Western blot analysis of protein levels of HMG CoA reductase (FIG. 15C). Total RNAs were purified using SV Total RNA Isolation Kit (Promega) from the cells treated with 25HC3S at concentrations as indicated (FIG. 15A) and incubation at 12 μM of 25HC3S for the different times (effect on HMG CoA mRNA) (FIG. 15B). Two μg of total RNA was used for cDNA preparation (RT) and performed as manufacture recommended (Invitrogen), and 10 ng of cDNA was used for real time PCR. The expression levels were normalized to GAPDH. The bands of HMG CoA reductase (HMGR) were quantitated by laser density scanning. Each value represents mean of three experiments±standard derivation.
Microsomal proteins (80 μg) were separated on a 7.5% SDS-polyacrylamide denaturing gel according to the method of Laemmli (14). Following SDS-PAGE (Hoefer Vertical Slab Gel Unit; Heofer, San Francisco, Calif.), proteins were electrophoretically transferred overnight (4° C.) to Immobilon-P membranes using a Hoefer Trans Blot Electrophoretic Transfer cell. The membranes were then blocked for 90 minutes (25° C.) in blocking buffer (PBS, pH 7.4, 0.1% Tween, 5% non-fat dry milk). […] Protein bands were detected using the Amersham ECL plus Kit.

[1] = Liver triglycerides (Sudan IV staining) in mice on normal or high cholesterol diet; assay type: in vivo; conditions: normal or high cholesterol diet for 8 days
Excerpt: To test the effect of diet on cholesterol levels, mice were provided with either a normal or high cholesterol diet for 8 days, and treated with the nuclear oxysterol as described above.

PPARγ [2] = biological target: T1, PPARγ (Homo sapiens, UniProt P37231); assay: Confocal immunofluorescence of intracellular PPARγ distribution in THP-1 macrophages; assay type: cell-based; conditions: compared with DMSO; 25 μM 25HC3S, 1 μM T0070907
T1 construct: THP-1 monocytes were differentiated to macrophages by adding 100 nM of phorbol 12-myristate 13-acetate (PMA); endogenous in cells; host or cells: THP-1 monocyte-derived macrophages (human, ATCC)
T1 sequence (P37231 1-505): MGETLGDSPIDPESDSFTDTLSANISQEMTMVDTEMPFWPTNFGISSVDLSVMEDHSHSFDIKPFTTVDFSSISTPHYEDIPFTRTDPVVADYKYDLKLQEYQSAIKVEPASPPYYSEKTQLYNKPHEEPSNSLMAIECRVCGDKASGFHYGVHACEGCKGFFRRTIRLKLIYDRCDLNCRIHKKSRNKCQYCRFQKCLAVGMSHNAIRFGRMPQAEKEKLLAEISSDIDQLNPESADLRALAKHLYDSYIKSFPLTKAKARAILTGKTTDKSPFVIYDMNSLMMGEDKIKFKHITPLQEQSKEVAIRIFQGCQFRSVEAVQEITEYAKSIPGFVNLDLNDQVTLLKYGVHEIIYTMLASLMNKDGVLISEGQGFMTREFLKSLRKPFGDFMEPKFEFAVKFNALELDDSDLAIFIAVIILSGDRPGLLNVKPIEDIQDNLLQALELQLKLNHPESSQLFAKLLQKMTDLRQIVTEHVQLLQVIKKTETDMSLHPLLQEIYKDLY
Description: Confocal microscopy analysis of intracellular translocation of PPARγ protein distribution. The nuclear marker was stained with DAP1 and PPARγ protein was detected by anti-PPARγ immunofluorescence.
THP-1 derived macrophages were cultured on coverslips in six-well plates and treated with different concentrations of 25HC and 25HC3S for 4 hrs. The cells on coverslips were washed with PBS, fixed with 3.7% formaldehyde for 10 min at 4° C., and then rinsed three times with PBS at room temperature. They were then permeabilized with PBS containing 0.1% of TritonX-100 for 3 min and washed with PBS before blocking by incubation with 5% of normal goat serum in PBS overnight at 4° C. For interaction with primary antibodies, cells were incubated with 2.5% normal goat serum in PBS containing PPARγ antibody for 1 hr in an incubator. Cells were washed in PBS containing 0.05% of Tween 20 (3×10 min). The bound primary antibodies were visualized with Alexa Fluor 488 goat anti-mouse IgG. The minor groove of double stranded DNA as a nuclear marker was stained by DAPI. Afterwashing, coverslips were mounted on slides and viewed with a Zeiss LSM 510 Meta confocal microscope.

PPARγ [3] = biological target: T1, PPARγ; assay: PPARγ transcription factor assay (PPRE-immobilized ELISA) of nuclear extracts; assay type: cell-based; conditions: THP-1 macrophages, 4 hrs, concentration-dependent
Description: PPAR response elements (PPRE) binding activities were measured using an enzyme-linked immunosorbent assay (PPAR transcription factor assay kit; Cayman Chemical, Ann Arbor, Mich.). The 96-well plate was preimmobilized with deoxyoligonucleoties containing PPRE. […] The cells were then rinsed and nuclear proteins were extracted according to the manufacturer's instructions. Total nuclear extract protein, 10 g from each sample, was added to the plate. The kit provided two negative as zero controls, one positive as maximal binding control, and one competitive as specific binding control (in the presence of dsDNA) were used in the assay. After incubating for 1 hr, the wells were washed and incubated with primary PPAR antibody which recognizes the accessible epitope on PPAR protein upon PPRE binding. The peroxidase-labeled second antibody was added and incubated for 1 hr. The reaction was stopped and absorbance was read at 450 nm in a spectrophotometer.

PPARγ [4] = assay: PPRE promoter reporter gene-luciferase assay in H441 cells; assay type: cell-based, human
Description: H441 cells were seeded in 96-well plates. When cell density reached 90-95%, the cells were transfected with an expression plasmid as indicated using a lipid-based FuGENE HD transfection reagent according to the manufacture (Roche, Indianapolis, Ind.). A synthetic renilla luciferase reporter, phrG-TK (Promega, Wisconsin, Wis.), was used as a luciferase internal standard. For PPRE reporter gene assay, 50 ng of pGL3-PPRE-acyl-CoA oxidase luciferase reporter, 50 ng of expression plasmid pCMX-PPARγ, and 50 ng of phrG-TK vector (internal standard) were cotransfected as per the manufacture's instruction. […] Luciferase activities were determined using the Dual-Glo Luciferase Assay System according to the manufacturer's protocol (Promega, Wisconsin, Wis.). The amount of luciferase activity was measured using a TopCount NXT Microplate Scintillation and Luminescence Counter (Packard, Meriden, Conn.) and normalized to the amount of phG-TK luciferase activity. Transfections were carried out in triplicate for each sample, and each experiment was repeated three times.

C[C@H](CCCC(C)(C)O)[C@H]1CC[C@H]2[C@@H]3CC=C4C[C@@H](OS(=O)(=O)O)CC[C@]4(C)[C@H]3CC[C@]12C [25HC3S, 5-cholesten-3β, 25-diol 3-sulphate]
effect on bile acid synthetic rates (primary rat hepatocytes): very similar to those in cells directly treated with the nuclear extracts from the StarD1 overexpressing cells | decrease of HMG CoA reductase protein level (HMG CoA reductase): 50% | triglyceride levels in liver tissues [1]: significantly decreased | nuclear PPARγ fluorescence intensities (PPARγ [2]): increased | PPRE-binding activities of the nuclear extracts (PPARγ [3]): significantly increased | PPARγ reporter gene activities in the presence of the antagonist T0070907 (PPARγ [4]; H441, ACOX-PPRE reporter and PPARγ co-overexpression, 1 μM T0070907): failed | PPRE activity relative to rosiglitazone (PPARγ [4]; at 25 μM): reached to a similar levels as that induced by the PPARγ agonist rosiglitazone
